Common to all, as to format: biochemical
The target in test [1] is T1, human Tyro3 (Homo sapiens, UniProt Q06418).
T1 construct: GST (N); made in house; host or cells: Sf9 insect cells (baculovirus)
T1 sequence (Q06418 455-890 limits assumed): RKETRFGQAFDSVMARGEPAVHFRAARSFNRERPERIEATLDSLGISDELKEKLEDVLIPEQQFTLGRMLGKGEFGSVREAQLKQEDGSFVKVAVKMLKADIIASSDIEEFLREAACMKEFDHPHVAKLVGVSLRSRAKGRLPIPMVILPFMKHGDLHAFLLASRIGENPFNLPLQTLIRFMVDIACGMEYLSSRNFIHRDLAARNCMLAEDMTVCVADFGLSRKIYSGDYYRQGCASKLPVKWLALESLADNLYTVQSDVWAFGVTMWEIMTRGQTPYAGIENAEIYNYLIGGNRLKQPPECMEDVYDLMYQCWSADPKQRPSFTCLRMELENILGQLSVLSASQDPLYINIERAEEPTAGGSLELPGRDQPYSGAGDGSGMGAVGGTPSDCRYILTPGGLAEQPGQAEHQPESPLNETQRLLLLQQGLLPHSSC
Description: Kinase enzymatic activity assay (33P-radiolabeled phosphate transfer), Tyro3. The settings on record: recombinant human Tyro3 (455-end), poly(4:1 glu:tyr) substrate, 30 minutes. A digest of the protocol:
(§1)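 GST-tagged human Tyro3 (455-end), Axl (473-end) and Mer (578-872) from Sf9 cells, with poly(Glu:Tyr) 4:1 substrate, in MOPS pH 7.2 buffer with MgCl2. [33P]-ATP added from a 250 µM cocktail; reaction 30 min at room temperature, filter-captured counts, duplicates. IC50 derived from % inhibition over a compound serial dilution.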

The target in test [2] is T2, human Axl (Homo sapiens, UniProt P30530).
T2 construct: GST (N); made in house; host or cells: Sf9 insect cells (baculovirus)
T2 sequence (P30530 473-894 limits assumed): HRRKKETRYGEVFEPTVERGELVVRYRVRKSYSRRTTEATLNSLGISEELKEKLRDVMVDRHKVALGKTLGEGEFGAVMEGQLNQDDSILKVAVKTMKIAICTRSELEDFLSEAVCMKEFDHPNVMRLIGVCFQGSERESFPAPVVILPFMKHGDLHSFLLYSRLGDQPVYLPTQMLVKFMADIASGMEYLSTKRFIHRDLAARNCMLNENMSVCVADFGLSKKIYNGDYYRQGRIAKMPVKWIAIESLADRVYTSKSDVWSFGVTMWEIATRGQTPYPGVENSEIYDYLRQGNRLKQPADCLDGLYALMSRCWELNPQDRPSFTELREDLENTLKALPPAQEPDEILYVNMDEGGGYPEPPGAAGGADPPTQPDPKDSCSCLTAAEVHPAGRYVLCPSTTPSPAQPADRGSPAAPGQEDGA
The test can be described thus: Kinase enzymatic activity assay (33P-radiolabeled phosphate transfer), Axl. Particulars: recombinant human Axl (473-end), poly(4:1 glu:tyr) substrate, 30 minutes. A digest of the protocol: as §1

Test [3] has as its target T3, human Mer (Homo sapiens, UniProt Q12866).
T3 construct: GST (N); made in house; host or cells: Sf9 insect cells (baculovirus)
T3 sequence (Q12866 578-872): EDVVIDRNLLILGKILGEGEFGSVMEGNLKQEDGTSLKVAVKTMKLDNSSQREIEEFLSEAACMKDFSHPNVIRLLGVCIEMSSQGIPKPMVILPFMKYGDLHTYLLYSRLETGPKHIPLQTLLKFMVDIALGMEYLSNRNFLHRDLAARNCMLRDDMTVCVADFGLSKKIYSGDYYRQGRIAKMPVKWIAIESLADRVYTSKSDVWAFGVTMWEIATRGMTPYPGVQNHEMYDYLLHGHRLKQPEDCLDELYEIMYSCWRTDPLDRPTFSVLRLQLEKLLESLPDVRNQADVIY
The test can be described thus: Kinase enzymatic activity assay (33P-radiolabeled phosphate transfer), Mer. The settings on record: recombinant human Mer (578-872), poly(4:1 glu:tyr) substrate, 30 minutes. A digest of the protocol: as §1

This is an account of results in patent US9771333B2, “Quinazoline derivatives as TAM family kinase inhibitors” (SIGNALCHEM LIFESCIENCES CORP., priority 2013, dated 2017).

Molecules are shown by their SMILES.

In general, IC50 refers to the midpoint of a concentration-inhibition curve. With `FC(F)(F)c1nnc(Nc2ncnc3cc(OCCCN4CCOCC4)cc(OC4CCOCC4)c23)s1` [Example 2.22, N-(7-(3-morpholinopropoxy)-5-((tetrahydro-2H-pyran-4-yl)oxy)quinazolin-4-yl)-5-(trifluoromethyl)-1,3,4-thiadiazol-2-amine], the results for the IC50 in test [1], in test [2] and in test [3] were > 10000 nM, 1000 to 10000 nM and > 10000 nM, respectively.

With `COCCOc1cc(OCCN2CCN(C)CC2)cc2ncnc(Sc3cc(F)cc(F)c3)c12` [Example 4.3, 4-((3,5-difluorophenyl)thio)-5-(2-methoxyethoxy)-7-(2-(4-methylpiperazin-1-yl)ethoxy)quinazoline], the results for the IC50 in test [1], in test [2] and in test [3] were 1000 to 10000 nM, 1000 to 10000 nM and > 10000 nM, respectively.

Take `c1csc(Nc2ncnc3cc(OCCCN4CCOCC4)cc(OC4CCOCC4)c23)n1` [Example 2.21, N-(7-(3-morpholinopropoxy)-5-((tetrahydro-2H-pyran-4-yl)oxy)quinazolin-4-yl)thiazol-2-amine]: the IC50 in test [1] is 1000 to 10000 nM; in test [2] it was < 500 nM; in test [3], < 500 nM.

On to `Cc1csc(Sc2ncnc3cc(OCC4CCN(C)CC4)cc(OC4CCOCC4)c23)n1` [Example 2.51, 4-methyl-2-((7-((1-methylpiperidin-4-yl)methoxy)-5-((tetrahydro-2H-pyran-4-yl)oxy)quinazolin-4-yl)thio)thiazole], for which the values for the IC50 in test [1], in test [2] and in test [3] were < 500 nM, < 500 nM and 1000 to 10000 nM, respectively.

Consider `COc1cc(OCCN2CCN(C)CC2)cc2ncnc(Oc3ccc(F)cc3Cl)c12` [Example 2.12, 4-(2-chloro-4-fluorophenoxy)-5-methoxy-7-(2-(4-methylpiperazin-1-yl)ethoxy)quinazoline], for which the concentration for half-maximal inhibition (IC50) in test [1] is < 500 nM; in test [2] it was 1000 to 10000 nM; in test [3] it was 1000 to 10000 nM.

In the case of `COc1cc(OCCCN2CCOCC2)cc2ncnc(Oc3cccc(C(=O)NCc4ccccc4)c3)c12` [Example 2.28, N-benzyl-3-((5-methoxy-7-(3-morpholinopropoxy)quinazolin-4-yl)oxy)benzamide], the concentration for half-maximal inhibition (IC50) in test [1], in test [2] and in test [3] was > 10000 nM throughout.

With `Cc1nnc(Nc2ncnc3cc(OCCCN4CCOCC4)cc(OC4CCOCC4)c23)s1` [Example 2.20, 5-methyl-N-(7-(3-morpholinopropoxy)-5-((tetrahydro-2H-pyran-4-yl)oxy)quinazolin-4-yl)-1,3,4-thiadiazol-2-amine], the IC50 in test [1] is > 10000 nM; in test [2], 1000 to 10000 nM; in test [3], 1000 to 10000 nM.

`CN(C)CCCOc1cc(OC2CCOCC2)c2c(Oc3ccc(F)cc3Cl)ncnc2c1` [Example 2.62, 3-((4-(2-chloro-4-fluorophenoxy)-5-((tetrahydro-2H-pyran-4-yl)oxy)quinazolin-7-yl)oxy)-N,N-dimethylpropan-1-amine]: the IC50 was < 500 nM in test [1], 1000 to 10000 nM in test [2] and < 500 nM in test [3].

As for `Cc1csc(Nc2ncnc3cc(OCC4CCN(C)CC4)cc(OC4CCOCC4)c23)n1` [Example 2.42, 4-methyl-N-(7-((1-methylpiperidin-4-yl)methoxy)-5-((tetrahydro-2H-pyran-4-yl)oxy)quinazolin-4-yl)thiazol-2-amine], the IC50 in test [1] is 1000 to 10000 nM; in test [2] it was < 500 nM; in test [3] it was < 500 nM.

As for `CN1CCC(COc2cc(OC3CCOCC3)c3c(Oc4ccc(F)cc4Cl)ncnc3c2)CC1` [Example 4.7, 4-(2-chloro-4-fluorophenoxy)-7-((1-methylpiperidin-4-yl)methoxy)-5-((tetrahydro-2H-pyran-4-yl)oxy)quinazoline], the values for the IC50 in test [1], in test [2] and in test [3] were < 500 nM, 500 to 1000 nM and < 500 nM, respectively.

Turning to `COCCN1CCN(c2cc(OC3CCOCC3)c3c(Nc4nc(C(F)(F)F)cs4)ncnc3c2)CC1` [Example 2.41, N-(7-(4-(2-methoxyethyl)piperazin-1-yl)-5-((tetrahydro-2H-pyran-4-yl)oxy)quinazolin-4-yl)-4-(trifluoromethyl)thiazol-2-amine], the IC50 in test [1] is > 10000 nM; in test [2], 1000 to 10000 nM; in test [3], > 10000 nM.

As for `OC[C@@H](O)COc1cc(OC2CCOCC2)c2c(Nc3nc(C(F)(F)F)cs3)ncnc2c1` [Example 2.55, (R)-3-((5-((tetrahydro-2H-pyran-4-yl)oxy)-4-((4-(trifluoromethyl)thiazol-2-yl)amino)quinazolin-7-yl)oxy)propane-1,2-diol], the figures for the IC50 in test [1], in test [2] and in test [3] were > 10000 nM, 500 to 1000 nM and > 10000 nM, respectively.

With `COC(=O)Cc1cccc(Oc2ncnc3cc(OCCCN4CCOCC4)cc(OC)c23)c1` [Example 2.27, methyl 2-(3-((5-methoxy-7-(3-morpholinopropoxy)quinazolin-4-yl)oxy)phenyl)acetate], the IC50 is 1000 to 10000 nM in test [1], > 10000 nM in test [2] and 1000 to 10000 nM in test [3].

Take `CN1CCC(COc2cc(OC3CCOCC3)c3c(Nc4nc(C(F)(F)F)cs4)ncnc3c2)CC1` [Example 2.23, N-(7-((1-methylpiperidin-4-yl)methoxy)-5-((tetrahydro-2H-pyran-4-yl)oxy)quinazolin-4-yl)-4-(trifluoromethyl)thiazol-2-amine]: the IC50 in test [1] was > 10000 nM; in test [2], < 500 nM; in test [3], > 10000 nM.

On to `Fc1ccc(Oc2ncnc3cc(OCCCN4CCOCC4)cc(OC4CCOCC4)c23)c(Cl)c1` [Example 2.5, 4-(3-((4-(2-chloro-4-fluorophenoxy)-5-((tetrahydro-2H-pyran-4-yl)oxy)quinazolin-7-yl)oxy)propyl)morpholine], for which the IC50 was < 500 nM in test [1], 500 to 1000 nM in test [2] and < 500 nM in test [3].

`CN1CCC(COc2cc(OC3CCOCC3)c3c(Nc4ncn[nH]4)ncnc3c2)CC1` [Example 8, 7-((1-methylpiperidin-4-yl)methoxy)-5-((tetrahydro-2H-pyran-4-yl)oxy)-N-(1H-1,2,4-triazol-5-yl)quinazolin-4-amine]: the IC50 in test [1], in test [2] and in test [3] was > 10000 nM in each case.

As to `COC(=O)c1cccc(Oc2ncnc3cc(OCCCN4CCOCC4)cc(OC)c23)c1` [Example 2.26, methyl 3-((5-methoxy-7-(3-morpholinopropoxy)quinazolin-4-yl)oxy)benzoate], the IC50 is 1000 to 10000 nM in test [1], > 10000 nM in test [2] and > 10000 nM in test [3].

`CN(C)CCCN(C)c1cc(OC2CCOCC2)c2c(Nc3nc(C(F)(F)F)cs3)ncnc2c1` [Example 2.59, N^7-(3-(dimethylamino)-propyl)-N^7-methyl-5-((tetrahydro-2H-pyran-4-yl)oxy)-N^4-(4-(trifluoromethyl)thiazol-2-yl)quinazoline-4,7-diamine]: the IC50 in test [1] was > 10000 nM; in test [2] it was 500 to 1000 nM; in test [3] it was > 10000 nM.

On to `Cc1cc(Nc2ncnc3cc(OCC4CCN(C)CC4)cc(OC4CCOCC4)c23)on1` [Example 2.40, 3-methyl-N-(7-((1-methylpiperidin-4-yl)methoxy)-5-((tetrahydro-2H-pyran-4-yl)oxy)quinazolin-4-yl)isoxazol-5-amine], for which the IC50 in test [1] was 1000 to 10000 nM; in test [2], < 500 nM; in test [3] it was 1000 to 10000 nM.

For `FC(F)(F)c1csc(Nc2ncnc3cc(OCCN4CCCCC4)cc(OC4CCOCC4)c23)n1` [Example 2.60, N-(7-(2-(piperidin-1-yl)ethoxy)-5-((tetrahydro-2H-pyran-4-yl)oxy)quinazolin-4-yl)-4-(trifluoromethyl)thiazol-2-amine], the figures for the IC50 in test [1], in test [2] and in test [3] were > 10000 nM, < 500 nM and < 500 nM, respectively.
